From patent US20240391862A1, “(1,4,5-TRISUBSTITUTED-1H-PYRAZOL-3-YL)OXY-2-ALKOXY ALKYL ACIDS AND THEIR DERIVATIVES, THEIR SALTS AND THEIR USE AS HERBICIDAL AGENTS” (Bayer AKtiengesellschaft, priority 2021, published 2024)

Key:
[1] = tested on: MATIN; assay: Post-emergence herbicidal effect, greenhouse pot test; format: in vivo, Tripleurospermum inodorum
Description: (§1) • ALOMY: Alopecurus myosuroides SETVI: Setaria viridis • AVEFA: Avena fatua POLCO: Fallopia convolvulus • AMARE: Amaranthus retroflexus ECHCG: Echinochloa crus-galli • LOLRJ: Lolium rigidum STEME: Stellaria media • VERPE: Veronica persica MATIN: Tripleurospermum inodorum • DIGSA: Digitaria sanguinalis ABUTH: Abutylon threophrasti • TRZAS: Triticum aestivum VIOTR: Viola tricolor • BRSNW: Brassica napus ZEAMX: Zea mays • PHBPU: Ipomoea purpurea GLXMA: Glycine max • ORYSA: Oryza sativa HORMU: Hordeum murinum
(§2) Seeds of monocotyledonous and dicotyledonous weeds and crop plants are placed in sandy loam in plastic or organic planting pots, covered with soil and cultivated in a greenhouse under controlled growth conditions. 2 to 3 weeks after sowing, the trial plants are treated at the one-leaf stage. The compounds of the invention, formulated in the form of wettable powders (WP) or as emulsion concentrates (EC), are then sprayed onto the green parts of the plants as aqueous suspension or emulsion with addition of 0.5% additive at a water application rate of 600 l/ha (converted). After the test plants have been kept in the greenhouse under optimum growth conditions for about 3 weeks, the activity of the preparations is rated visually in comparison to untreated controls. For example, 100% activity=the plants have died, 0% activity=like control plants.
(§3) Tables 20a to 38c below show the effects/crop compatibilities of selected compounds of the general formula (I) on various harmful plants at an application rate corresponding to 20 to 320 g/ha, which were obtained by the trial procedure specified above.

[2] = tested on: KCHSC; assay: as above; format: in vivo
Description: as §2, with “plants. Tables 20a to 38c below show the effects/crop compatibilities of selected compounds of the general formula (I) on various harmful plants at an application rate corresponding to 20 to 320 g/ha, which were obtained by the trial procedure specified above.” for “plants.”

[3] = tested on: SETVI; assay: as above; format: in vivo, Setaria viridis
Description: as §1, §2, §3

[4] = tested on: DIGSA; assay: as above; format: in vivo, Digitaria sanguinalis; conditions: visual rating about 3 weeks after treatment
Description: as §1, §2, §3

[5] = tested on: ALOMY; assay: as above; format: in vivo, Alopecurus myosuroides; conditions: 320 g/ha, visual rating about 3 weeks after treatment
Description: as §1, §2, §3

[6] = tested on: VIOTR; assay: as above; format: in vivo, Viola tricolor
Description: as §1, §2, §3

[7] = tested on: PHBPU; assay: as above; format: in vivo, Ipomoea purpurea
Description: as §1, §2, §3

[8] = tested on: AVEFA; assay: as above; format: in vivo, Avena fatua; conditions: visual rating about 3 weeks after treatment
Description: as §1, §2, §3

[9] = tested on: VERPE; assay: as above; format: in vivo, Veronica persica
Description: as §1, §2, §3

[10] = tested on: ABUTH; assay: as above; format: in vivo, Abutilon theophrasti; conditions: visual rating about 3 weeks after treatment
Description: as §1, §2, §3

[11] = tested on: POLCO; assay: as above; format: in vivo, Fallopia convolvulus
Description: as §1, §2, §3

[12] = tested on: ECHCG; assay: as above; format: in vivo, Echinochloa crus-galli
Description: as §1, §2, §3

[13] = tested on: AMARE; assay: as above; format: in vivo, Amaranthus retroflexus; conditions: 320 g/ha, visual rating about 3 weeks after treatment
Description: as §1, §2, §3

[14] = tested on: ZEAMX; assay: Post-emergence herbicidal effect and crop plant compatibility, greenhouse pot test; format: in vivo, Zea mays; conditions: 20 g/ha, one-leaf stage, rated visually after about 3 weeks vs untreated controls
Description: as §1, §2, §3

CCOC(Oc1nn(-c2ccccc2F)c(-c2ccc(F)nc2)c1Br)C(=O)OCCC(=O)OC (single isomer, unassigned) [Example I-63, Methyl 3-{[(2R*)-2-{[4-bromo-1-(2-fluorophenyl)-5-(6-fluoropyridin-3-yl)-1H-pyrazol-3-yl]oxy}-2-ethoxyethanoyl]oxy}propanoate]
pest or weed control at 80 g/ha ([1]; Tripleurospermum inodorum, 504 h, 80 g/ha, read-out: Post-emergence effect against MATIN in %): 80%
pest or weed control at 320 g/ha ([1]; Tripleurospermum inodorum, 504 h, 320 g/ha, read-out: Post-emergence effect against MATIN in %): 80%
pest or weed control at 320 g/ha ([2]; 504 h, 320 g/ha, read-out: Post-emergence effect against KCHSC in %): 90%
pest or weed control at 80 g/ha ([3]; Setaria viridis, 504 h, 80 g/ha, read-out: Post-emergence effect against SETVI in %): 90%
pest or weed control at 320 g/ha ([3]; Setaria viridis, 504 h, 320 g/ha, read-out: Post-emergence effect against SETVI in %): 90%
pest or weed control at 80 g/ha ([4]; Digitaria sanguinalis, 504 h, 80 g/ha, read-out: Post-emergence effect against DIGSA): 90%
pest or weed control at 320 g/ha ([4]; Digitaria sanguinalis, 504 h, 320 g/ha, read-out: Post-emergence effect against DIGSA): 90%
pest or weed control at 320 g/ha ([5]; Alopecurus myosuroides, 504 h, read-out: Post-emergence effect against ALOMY): 90%
pest or weed control at 80 g/ha ([6]; Viola tricolor, 504 h, 80 g/ha, read-out: Post-emergence effect against VIOTR in %): 80%
pest or weed control at 320 g/ha ([6]; Viola tricolor, 504 h, 320 g/ha, read-out: Post-emergence effect against VIOTR in %): 90%
pest or weed control at 20 g/ha ([7]; Ipomoea purpurea, 504 h, 20 g/ha, read-out: Post-emergence effect against PHBPU in %): 80%
pest or weed control at 80 g/ha ([7]; Ipomoea purpurea, 504 h, 80 g/ha, read-out: Post-emergence effect against PHBPU in %): 90%
pest or weed control at 320 g/ha ([7]; Ipomoea purpurea, 504 h, 320 g/ha, read-out: Post-emergence effect against PHBPU in %): 90%
pest or weed control at 80 g/ha ([8]; Avena fatua, 504 h, 80 g/ha, read-out: Post-emergence effect against AVEFA): 80%
pest or weed control at 320 g/ha ([8]; Avena fatua, 504 h, 320 g/ha, read-out: Post-emergence effect against AVEFA): 90%
pest or weed control at 80 g/ha ([9]; Veronica persica, 504 h, 80 g/ha, read-out: Post-emergence effect against VERPE in %): 80%
pest or weed control at 320 g/ha ([9]; Veronica persica, 504 h, 320 g/ha, read-out: Post-emergence effect against VERPE in %): 80%
pest or weed control at 80 g/ha ([10]; Abutilon theophrasti, 504 h, 80 g/ha, read-out: Post-emergence effect against ABUTH): 90%
pest or weed control at 320 g/ha ([10]; Abutilon theophrasti, 504 h, 320 g/ha, read-out: Post-emergence effect against ABUTH): 90%
pest or weed control at 80 g/ha ([11]; Fallopia convolvulus, 504 h, 80 g/ha, read-out: Post-emergence effect against POLCO in %): 80%
pest or weed control at 320 g/ha ([11]; Fallopia convolvulus, 504 h, 320 g/ha, read-out: Post-emergence effect against POLCO in %): 90%
pest or weed control at 20 g/ha ([12]; Echinochloa crus-galli, 504 h, 20 g/ha, visual rating about 3 weeks after treatment, read-out: Post-emergence effect against ECHCG): 90%
pest or weed control at 80 g/ha ([12]; Echinochloa crus-galli, 504 h, 80 g/ha, read-out: Post-emergence effect against ECHCG in %): 90%
pest or weed control at 320 g/ha ([12]; Echinochloa crus-galli, 504 h, 320 g/ha, read-out: Post-emergence effect against ECHCG in %): 90%

COC(=O)CCOC(=O)C(OC)Oc1nn(-c2ncccc2F)c(-c2ccc(F)nc2)c1C1CC1 (single isomer, unassigned) [Example I-80]
Post-emergence effect against KCHSC in % ([2]; 20 g/ha): 90%
Post-emergence effect against KCHSC in % ([2]; 80 g/ha): 90%
Post-emergence effect against KCHSC in % ([2]; 320 g/ha): 90%
Post-emergence effect against SETVI in % ([3]; 80 g/ha): 90%
Post-emergence effect against SETVI in % ([3]; 320 g/ha): 90%
Post-emergence effect against DIGSA ([4]; 80 g/ha): 80%
Post-emergence effect against DIGSA ([4]; 320 g/ha): 90%
Post-emergence effect against ALOMY [5]: 90%
Post-emergence effect against VIOTR in % ([6]; 80 g/ha): 80%
Post-emergence effect against VIOTR in % ([6]; 320 g/ha): 90%
Post-emergence effect against AMARE [13]: 80%
Post-emergence effect against PHBPU in % ([7]; 80 g/ha): 90%
Post-emergence effect against PHBPU in % ([7]; 320 g/ha): 90%
Post-emergence effect against AVEFA ([8]; 320 g/ha): 90%
Post-emergence effect at 20 g/ha against ZEAMX in % [14]: 20%
Post-emergence effect against VERPE in % ([9]; 80 g/ha): 80%
Post-emergence effect against VERPE in % ([9]; 320 g/ha): 90%
Post-emergence effect against ABUTH ([10]; 80 g/ha): 80%
Post-emergence effect against ABUTH ([10]; 320 g/ha): 80%
Post-emergence effect against POLCO in % ([11]; 320 g/ha): 90%
Post-emergence effect against ECHCG ([12]; 20 g/ha, visual rating about 3 weeks after treatment): 90%
Post-emergence effect against ECHCG in % ([12]; 80 g/ha): 90%
Post-emergence effect against ECHCG in % ([12]; 320 g/ha): 90%

COC(=O)CCOC(=O)C(OC)Oc1nn(-c2ccccc2F)c(-c2ccc(F)nc2)c1C1CC1 (centres unmarked) [Example I-61]
Post-emergence effect against MATIN in % ([1]; 80 g/ha): 80%
Post-emergence effect against MATIN in % ([1]; 320 g/ha): 80%
Post-emergence effect against KCHSC in % ([2]; 80 g/ha): 80%
Post-emergence effect against KCHSC in % ([2]; 320 g/ha): 90%
Post-emergence effect against SETVI in % ([3]; 80 g/ha): 90%
Post-emergence effect against SETVI in % ([3]; 320 g/ha): 90%
Post-emergence effect against DIGSA ([4]; 80 g/ha): 80%
Post-emergence effect against DIGSA ([4]; 320 g/ha): 90%
Post-emergence effect against ALOMY [5]: 90%
Post-emergence effect against VIOTR in % ([6]; 20 g/ha): 80%
Post-emergence effect against VIOTR in % ([6]; 80 g/ha): 90%
Post-emergence effect against VIOTR in % ([6]; 320 g/ha): 90%
Post-emergence effect against PHBPU in % ([7]; 80 g/ha): 90%
Post-emergence effect against PHBPU in % ([7]; 320 g/ha): 90%
Post-emergence effect against AVEFA ([8]; 80 g/ha): 80%
Post-emergence effect against AVEFA ([8]; 320 g/ha): 90%
Post-emergence effect at 20 g/ha against ZEAMX in % [14]: 0%
Post-emergence effect against VERPE in % ([9]; 80 g/ha): 80%
Post-emergence effect against VERPE in % ([9]; 320 g/ha): 80%
Post-emergence effect against ABUTH ([10]; 80 g/ha): 80%
Post-emergence effect against ABUTH ([10]; 320 g/ha): 80%
Post-emergence effect against POLCO in % ([11]; 80 g/ha): 80%
Post-emergence effect against POLCO in % ([11]; 320 g/ha): 80%
Post-emergence effect against ECHCG in % ([12]; 80 g/ha): 90%
Post-emergence effect against ECHCG in % ([12]; 320 g/ha): 90%

COC(=O)CCOC(=O)C(OC)Oc1nn(-c2ccccc2F)c(-c2ccc(F)nc2)c1C(F)(F)F (centres unmarked) [Example I-62]
Post-emergence effect against MATIN in % ([1]; 80 g/ha): 80%
Post-emergence effect against MATIN in % ([1]; 320 g/ha): 80%
Post-emergence effect against KCHSC in % ([2]; 20 g/ha): 80%
Post-emergence effect against KCHSC in % ([2]; 80 g/ha): 90%
Post-emergence effect against KCHSC in % ([2]; 320 g/ha): 90%
Post-emergence effect against SETVI in % ([3]; 80 g/ha): 90%
Post-emergence effect against SETVI in % ([3]; 320 g/ha): 90%
Post-emergence effect against DIGSA ([4]; 80 g/ha): 90%
Post-emergence effect against DIGSA ([4]; 320 g/ha): 90%
Post-emergence effect against ALOMY [5]: 90%
Post-emergence effect against VIOTR in % ([6]; 80 g/ha): 90%
Post-emergence effect against VIOTR in % ([6]; 320 g/ha): 90%
Post-emergence effect against PHBPU in % ([7]; 20 g/ha): 90%
Post-emergence effect against PHBPU in % ([7]; 80 g/ha): 90%
Post-emergence effect against PHBPU in % ([7]; 320 g/ha): 90%
Post-emergence effect against AVEFA ([8]; 80 g/ha): 90%
Post-emergence effect against AVEFA ([8]; 320 g/ha): 90%
Post-emergence effect at 20 g/ha against ZEAMX in % [14]: 0%
Post-emergence effect against VERPE in % ([9]; 80 g/ha): 80%
Post-emergence effect against VERPE in % ([9]; 320 g/ha): 80%
Post-emergence effect against ABUTH ([10]; 80 g/ha): 80%
Post-emergence effect against ABUTH ([10]; 320 g/ha): 90%
Post-emergence effect against POLCO in % ([11]; 80 g/ha): 80%
Post-emergence effect against POLCO in % ([11]; 320 g/ha): 80%
Post-emergence effect against ECHCG in % ([12]; 80 g/ha): 90%
Post-emergence effect against ECHCG in % ([12]; 320 g/ha): 90%
